Test system: Arion lusitanicus
Test: Slug Mucosal Irritation (SMI) assay
Assay type: in vivo
Protocol: The SMI assay uses slugs (Arion lusitanicus) as the test organism. The body wall of slugs consists of a mucosal surface comprising mucus secreting cells covering a sub epithelial connective tissue. Slugs that are placed on an irritant substance will actively produce mucus as a protective mechanism from noxious agents. Additionally, tissue damage of the slug's surface results in the release of proteins and enzymes. The protein concentration in the collected samples is determined with a protein quantitation kit.
The Slug Mucosal Irritation (SMI) assay was developed to predict the mucosal irritation potency of pharmaceutical formulations and ingredients. Briefly, the assay utilized the terrestrial slug Arion lusitanicus, whose body wall is a mucosal surface composed of different layers. The outer single-layered columnar epithelium contains cells with cilia, cells with microvilli, and mucus-secreting cells that cover the subepithelial connective tissue. […]
The method for testing the irritation potency of the formulations was evaluated by placing the slugs on 100 mg of the sample for 30 minutes daily for 3 successive days, and the amount of mucus produced was measured. […] The total mucus production (MP) percentage was calculated as a percent of the slug's body weight.

What does the source list for Nonoxynol-9?
Total MP (%) (100 mg, 30 minutes daily, 3 successive days, percent of slug body weight): 8.2 ± 1.2%; MIP (mucosal irritation potency class): high
